Experimental data published in ChEMBL document CHEMBL3046196, “Dimeric 2-(2-chlorophenyl)-quinazolin-4-ones as potential antimicrobial agents” (2012).
≈ marks a conversion by molar mass, not a printed value.

Key:
Type in all cases: functional
[1] = system: Streptococcus pyogenes; test: Antimicrobial activity against Streptococcus pyogenes MTCC 442 after 24 and 48 hr by serial broth dilution method
[2] = system: Aspergillus clavatus; test: Antimicrobial activity against Aspergillus clavatus MTCC 1323
[3] = system: Staphylococcus aureus; test: Antimicrobial activity against Staphylococcus aureus MTCC 96 after 24 and 48 hr by serial broth dilution method
[4] = system: Escherichia coli; test: Antimicrobial activity against Escherichia coli MTCC 443 after 24 and 48 hr by serial broth dilution method
[5] = system: Candida albicans; test: Antimicrobial activity against Candida albicans MTCC 227
[6] = system: Pseudomonas aeruginosa; test: Antimicrobial activity against Pseudomonas aeruginosa MTCC 1688 after 24 and 48 hr by serial broth dilution method
[7] = system: Aspergillus niger; test: Antimicrobial activity against Aspergillus niger MTCC 282

| Compound | MIC99 [1] [µg/mL] | MIC99 [2] [µg/mL] | MIC99 [3] [µg/mL] | MIC99 [4] [µg/mL] | MIC99 [5] [µg/mL] | MIC99 [6] [µg/mL] | MIC99 [7] [µg/mL] |
| --- | --- | --- | --- | --- | --- | --- | --- |
| O=c1c2ccccc2nc(-c2ccccc2Cl)n1CCc1ccc2nc(-c3ccccc3Cl)n(-c3ccccc3[N+](=O)[O-])c(=O)c2c1 | 12.5 (≈ 18.9 µM) | 1000 (≈ 1510 µM) | 200 (≈ 303 µM) | 100 (≈ 151 µM) | 100 (≈ 151 µM) | 200 (≈ 303 µM) | 100 (≈ 151 µM) |
| O=c1c2ccccc2nc(-c2ccccc2Cl)n1CCc1ccc2nc(-c3ccccc3Cl)n(-c3ccc(Br)cc3)c(=O)c2c1 | 500 (≈ 720 µM) | 1000 (≈ 1440 µM) | 500 (≈ 720 µM) | 200 (≈ 288 µM) | 1000 (≈ 1440 µM) | 200 (≈ 288 µM) | 500 (≈ 720 µM) |
| CC1(C)S[C@@H]2[C@H](NC(=O)[C@H](N)c3ccccc3)C(=O)N2[C@H]1C(=O)O [AMPICILLIN] | 100 (≈ 286 µM) | – | 250 (≈ 715 µM) | 100 (≈ 286 µM) | – | 100 (≈ 286 µM) | – |
| O=c1c2ccccc2nc(-c2ccccc2Cl)n1CCc1ccc2nc(-c3ccccc3Cl)n(-c3ccc(Cl)c(Cl)c3)c(=O)c2c1 | 50 (≈ 73.1 µM) | 100 (≈ 146 µM) | 50 (≈ 73.1 µM) | 200 (≈ 292 µM) | 100 (≈ 146 µM) | 100 (≈ 146 µM) | 500 (≈ 731 µM) |
| COC1=CC(=O)C[C@@H](C)[C@]12Oc1c(Cl)c(OC)cc(OC)c1C2=O [GRISEOFULVIN] | – | 100 (≈ 283 µM) | – | – | 500 (≈ 1420 µM) | – | 100 (≈ 283 µM) |
| O=c1c2ccccc2nc(-c2ccccc2Cl)n1CCc1ccc2nc(-c3ccccc3Cl)n(-c3ccc([N+](=O)[O-])cc3)c(=O)c2c1 | 100 (≈ 151 µM) | 500 (≈ 757 µM) | 200 (≈ 303 µM) | 100 (≈ 151 µM) | 500 (≈ 757 µM) | 500 (≈ 757 µM) | 500 (≈ 757 µM) |
| COc1ccc(-n2c(-c3ccccc3Cl)nc3ccc(CCn4c(-c5ccccc5Cl)nc5ccccc5c4=O)cc3c2=O)c([N+](=O)[O-])c1 | 100 (≈ 145 µM) | 500 (≈ 724 µM) | 100 (≈ 145 µM) | 100 (≈ 145 µM) | 100 (≈ 145 µM) | 500 (≈ 724 µM) | 500 (≈ 724 µM) |
| O=c1c2ccccc2nc(-c2ccccc2Cl)n1CCc1ccc2nc(-c3ccccc3Cl)n(-c3c(Cl)cc([N+](=O)[O-])cc3Cl)c(=O)c2c1 | 50 (≈ 68.5 µM) | 100 (≈ 137 µM) | 100 (≈ 137 µM) | 500 (≈ 685 µM) | 500 (≈ 685 µM) | 500 (≈ 685 µM) | 100 (≈ 137 µM) |
| O=c1c2ccccc2nc(-c2ccccc2Cl)n1CCc1ccc2nc(-c3ccccc3Cl)n(-c3cccc([N+](=O)[O-])c3)c(=O)c2c1 | 50 (≈ 75.7 µM) | 100 (≈ 151 µM) | 50 (≈ 75.7 µM) | 50 (≈ 75.7 µM) | 1000 (≈ 1510 µM) | 100 (≈ 151 µM) | 1000 (≈ 1510 µM) |

Other lines, results leading:

| MIC99 [1] [µg/mL] | MIC99 [2] [µg/mL] | MIC99 [3] [µg/mL] | MIC99 [4] [µg/mL] | MIC99 [5] [µg/mL] | MIC99 [6] [µg/mL] | MIC99 [7] [µg/mL] | Compound |
| --- | --- | --- | --- | --- | --- | --- | --- |
| 25 (≈ 37.1 µM) | 100 (≈ 148 µM) | 100 (≈ 148 µM) | 200 (≈ 296 µM) | 500 (≈ 741 µM) | 500 (≈ 741 µM) | 1000 (≈ 1480 µM) | Cc1ccc(-n2c(-c3ccccc3Cl)nc3ccc(CCn4c(-c5ccccc5Cl)nc5ccccc5c4=O)cc3c2=O)c([N+](=O)[O-])c1 |
| 25 (≈ 38.8 µM) | 500 (≈ 777 µM) | 100 (≈ 155 µM) | 100 (≈ 155 µM) | 200 (≈ 311 µM) | 200 (≈ 311 µM) | 500 (≈ 777 µM) | Cc1ccc(C)c(-n2c(-c3ccccc3Cl)nc3ccc(CCn4c(-c5ccccc5Cl)nc5ccccc5c4=O)cc3c2=O)c1 |
| 50 (≈ 76.9 µM) | 100 (≈ 154 µM) | 200 (≈ 308 µM) | 500 (≈ 769 µM) | 500 (≈ 769 µM) | 500 (≈ 769 µM) | 100 (≈ 154 µM) | O=c1c2ccccc2nc(-c2ccccc2Cl)n1CCc1ccc2nc(-c3ccccc3Cl)n(-c3ccccc3Cl)c(=O)c2c1 |
| 50 (≈ 77.7 µM) | 500 (≈ 777 µM) | 50 (≈ 77.7 µM) | 50 (≈ 77.7 µM) | 100 (≈ 155 µM) | 100 (≈ 155 µM) | 500 (≈ 777 µM) | Cc1ccc(-n2c(-c3ccccc3Cl)nc3ccc(CCn4c(-c5ccccc5Cl)nc5ccccc5c4=O)cc3c2=O)c(C)c1 |
| 100 (≈ 155 µM) | 500 (≈ 777 µM) | 500 (≈ 777 µM) | 50 (≈ 77.7 µM) | 500 (≈ 777 µM) | 100 (≈ 155 µM) | 500 (≈ 777 µM) | Cc1cccc(-n2c(-c3ccccc3Cl)nc3ccc(CCn4c(-c5ccccc5Cl)nc5ccccc5c4=O)cc3c2=O)c1C |
